# Test results: paper PMC9284540 (Journal of Molecular Biology, 2022)
# Key:
# [1] = target: T1, SARS-CoV-2^A358V/F360N MD (Severe acute respiratory syndrome coronavirus 2, UniProt P0DTD1, A1176V/F1178N); type: binding
# [2] = target: T2, SARS-CoV-2^F360N/D361S MD (Severe acute respiratory syndrome coronavirus 2, UniProt P0DTD1, D1179S/F1178N); type: binding
# [3] = target: T1, SARS-CoV-2^A358V/F360N MD; type: biochemical
# [4] = target: T2, SARS-CoV-2^F360N/D361S MD; type: biochemical
compound,measurement,setting,value
N#C[C@@]1(c2ccc3c(N)ncnn23)O[C@H](CO)[C@@H](O)[C@H]1O [GS-441524],exchange regime on NMR time scale,[1],fast exchange regime
same,exchange regime on NMR time scale,[2],fast exchange regime
same,Initial substrate decay rate k,[3],0.127 ± 0.01 µM/min
same,decrease of the k value vs free form,[3],33.2%
same,Initial substrate decay rate k,[4],0.160 ± 0.007 µM/min
same,decrease of the k value vs free form,[4],24.9%
